By EC50 is commonly meant the concentration that produces a half-maximal response. One may read the inhibition in vivo as the relative decrease from the control value, in per cent.

A short description of data set [1]: Induction of nitric oxide release at 10^-4 M after 1 hr by Griess method relative to control. The data set is classed as physicochemical. The note with it: 100 µM. In general terms: Nitrite, measured by Griess reagent, commonly stands in for NO production.
In another data set the test system is Aorta. Nature of the data set: Vasorelaxant activity in normotensive Rattus norvegicus Wistar albino (rat) aorta assessed as inhibition of norepinephrine-induced contraction. The data set is classed as functional, tissue-based.
Data set [2] has as its system Rattus norvegicus. Nature of the data set: Anti-inflammatory activity in Rattus norvegicus Wistar albino (rat) assessed as carrageenan-induced paw edema at 66.69 mg/kg, po administered 1 hr prior to carrageenan-challenge measured at 3 hr relative to control. Format: functional. In general terms: In the carrageenan paw model, swelling and tenderness develop within hours.

Data set [3] relates to Rattus norvegicus. Nature of the data set: Anti-inflammatory activity in Rattus norvegicus Wistar albino (rat) assessed as carrageenan-induced paw edema at 66.69 mg/kg, po administered 1 hr prior to carrageenan-challenge measured at 2 hr relative to control. The data set is classed as functional.
Data set [4] relates to Mus musculus. Nature of the data set: Analgesic activity in Mus musculus (mouse) assessed as inhibition of acetic acid-induced writhing at 49.46 mg/kg, po measured after 5 min for 15 min relative to control. Format: functional.
Data set [5] relates to Rattus norvegicus. In words: Anti-inflammatory activity in Rattus norvegicus Wistar albino (rat) assessed as carrageenan-induced paw edema at 66.69 mg/kg, po administered 1 hr prior to carrageenan-challenge measured at 1 hr relative to control. Format: functional.
Data set [6] has as its system Rattus norvegicus. Nature of the data set: Gastrointestinal toxicity against Rattus norvegicus Wistar albino (rat) assessed as disruption of mucosal layer at 61.2 mg/kg po by HE-staining based […] microscopic analysis. Format: organism-based. Details: dose 61.2 mg/kg, route oral. The note with it: in vivo.
Data set [7] relates to Rattus norvegicus. In words: Anti-inflammatory activity in Rattus norvegicus Wistar albino (rat) assessed as carrageenan-induced paw edema at 51.06 mg/kg, po administered 1 hr prior to carrageenan-challenge measured at 3 hr relative to control. The data set is classed as functional.
For data set [8], the system named is Rattus norvegicus. Nature of the data set: Anti-inflammatory activity in Rattus norvegicus Wistar albino (rat) assessed as carrageenan-induced paw edema at 51.06 mg/kg, po administered 1 hr prior to carrageenan-challenge measured at 2 hr relative to control. The data set is classed as functional.
Data set [9] concerns Rattus norvegicus. In words: Anti-inflammatory activity in Rattus norvegicus Wistar albino (rat) assessed as carrageenan-induced paw edema at 51.06 mg/kg, po administered 1 hr prior to carrageenan-challenge measured at 1 hr relative to control. Format: functional.
Data set [10] relates to Mus musculus. Nature of the data set: Analgesic activity in Mus musculus (mouse) assessed as inhibition of acetic acid-induced writhing at 37.87 mg/kg, po measured after 5 min for 15 min relative to control. The data set is classed as functional. Background: Writhing tests count abdominal constrictions after an irritant is injected.
Data set [11] deals with Rattus norvegicus. Nature of the data set: Gastrointestinal toxicity against Rattus norvegicus Wistar albino (rat) assessed as disruption of mucosal layer at 59.64 mg/kg po by HE-staining based […] microscopic analysis. Details: dose 59.64 mg/kg, route oral. The data set is classed as organism-based. The note with it: in vivo.
In data set [12] the test system is Mus musculus. Nature of the data set: Analgesic activity in Mus musculus (mouse) assessed as inhibition of acetic acid-induced writhing at 37.28 mg/kg, po measured after 5 min for 15 min relative to control. The data set is classed as functional.
Data set [13] has as its system Rattus norvegicus. Nature of the data set: Anti-inflammatory activity in Rattus norvegicus Wistar albino (rat) assessed as carrageenan-induced paw edema at 49.7 mg/kg, po administered 1 hr prior to carrageenan-challenge measured at 1 hr relative to control. Format: functional.
In data set [14] the test system is Rattus norvegicus. Nature of the data set: Anti-inflammatory activity in Rattus norvegicus Wistar albino (rat) assessed as carrageenan-induced paw edema at 49.7 mg/kg, po administered 1 hr prior to carrageenan-challenge measured at 3 hr relative to control. Format: functional.
The test system of data set [15] is Rattus norvegicus. In words: Anti-inflammatory activity in Rattus norvegicus Wistar albino (rat) assessed as carrageenan-induced paw edema at 49.7 mg/kg, po administered 1 hr prior to carrageenan-challenge measured at 2 hr relative to control. Format: functional.
Data set [16] has as its system Mus musculus. In words: Analgesic activity in Mus musculus (mouse) assessed as inhibition of acetic acid-induced writhing at 47.98 mg/kg, po measured after 5 min for 15 min relative to control. The data set is classed as functional.
Data set [17] concerns Rattus norvegicus. In words: Anti-inflammatory activity in Rattus norvegicus Wistar albino (rat) assessed as carrageenan-induced paw edema at 63.98 mg/kg, po administered 1 hr prior to carrageenan-challenge measured at 3 hr relative to control. The data set is classed as functional.
Data set [18] has as its system Rattus norvegicus. Nature of the data set: Anti-inflammatory activity in Rattus norvegicus Wistar albino (rat) assessed as carrageenan-induced paw edema at 63.98 mg/kg, po administered 1 hr prior to carrageenan-challenge measured at 2 hr relative to control. The data set is classed as functional.
The subject of data set [19] is Rattus norvegicus. In words: Anti-inflammatory activity in Rattus norvegicus Wistar albino (rat) assessed as carrageenan-induced paw edema at 63.98 mg/kg, po administered 1 hr prior to carrageenan-challenge measured at 1 hr relative to control. The data set is classed as functional.
Data set [20] concerns Rattus norvegicus. In words: Gastrointestinal toxicity against Rattus norvegicus Wistar albino (rat) assessed as disruption of mucosal layer at 57.96 mg/kg po by HE-staining based […] microscopic analysis. The data set is classed as organism-based. Details: dose 57.96 mg/kg, route oral. The note with it: in vivo.
In data set [21] the test system is Mus musculus. Nature of the data set: Analgesic activity in Mus musculus (mouse) assessed as inhibition of acetic acid-induced writhing at 35.85 mg/kg, po measured after 5 min for 15 min relative to control. The data set is classed as functional.
The test system of data set [22] is Rattus norvegicus. In words: Anti-inflammatory activity in Rattus norvegicus Wistar albino (rat) assessed as carrageenan-induced paw edema at 48.34 mg/kg, po administered 1 hr prior to carrageenan-challenge measured at 3 hr relative to control. Format: functional.
Data set [23] deals with Rattus norvegicus. Nature of the data set: Anti-inflammatory activity in Rattus norvegicus Wistar albino (rat) assessed as carrageenan-induced paw edema at 48.34 mg/kg, po administered 1 hr prior to carrageenan-challenge measured at 2 hr relative to control. Format: functional.
The test system of data set [24] is Rattus norvegicus. Nature of the data set: Anti-inflammatory activity in Rattus norvegicus Wistar albino (rat) assessed as carrageenan-induced paw edema at 48.34 mg/kg, po administered 1 hr prior to carrageenan-challenge measured at 1 hr relative to control. The data set is classed as functional.
Data set [25] concerns Rattus norvegicus. Nature of the data set: Gastrointestinal toxicity against Rattus norvegicus Wistar albino (rat) assessed as disruption of mucosal layer at 24 mg/kg po by HE-staining based […] microscopic analysis. Format: organism-based. Details: dose 24 mg/kg, route oral. The note with it: in vivo.
Data set [26] concerns Mus musculus. In words: Analgesic activity in Mus musculus (mouse) assessed as inhibition of acetic acid-induced writhing at 15 mg/kg, po measured after 5 min for 15 min relative to control. Format: functional.
Data set [27] has as its system Rattus norvegicus. In words: Anti-inflammatory activity in Rattus norvegicus Wistar albino (rat) assessed as carrageenan-induced paw edema at 20 mg/kg, po administered 1 hr prior to carrageenan-challenge measured at 3 hr relative to control. Format: functional.
The test system of data set [28] is Rattus norvegicus. In words: Anti-inflammatory activity in Rattus norvegicus Wistar albino (rat) assessed as carrageenan-induced paw edema at 20 mg/kg, po administered 1 hr prior to carrageenan-challenge measured at 2 hr relative to control. The data set is classed as functional.
For data set [29], the system named is Rattus norvegicus. In words: Anti-inflammatory activity in Rattus norvegicus Wistar albino (rat) assessed as carrageenan-induced paw edema at 20 mg/kg, po administered 1 hr prior to carrageenan-challenge measured at 1 hr relative to control. Format: functional.

Structures are written as SMILES. Converted amounts (≈) assume the structure as drawn.

On to `CC(C)Cc1ccc(C(C)c2n[nH]c(=S)n2-c2ccc(C(=O)NNC(=O)CCO[N+](=O)[O-])c(C(=O)NNC(=O)CCO[N+](=O)[O-])c2)cc1` (stereo not given), for which the Activity in data set [1] is on record as 0.57%. Moreover, the concentration for a half-maximal effect (EC50) in the data set on Aorta was determined as 34.9 µg/mL (≈ 50.7 µM). Further, the inhibition in vivo at 66.69 mg/kg in the data set with Rattus norvegicus [2] was determined as 31.9%; in the data set with Rattus norvegicus [3], 29.9%; in the data set on Rattus norvegicus [5] it was 27.9%. In the data set on Mus musculus [4], the inhibition in vivo at 49.46 mg/kg turned out to be 48.6%.

In the case of `CC(C)Cc1ccc(C(C)c2n[nH]c(=S)n2-c2ccccc2CC(=O)NNC(=O)CCO[N+](=O)[O-])cc1` (stereo not given), the figures for the Activity (in data set [1]; in the data set on Rattus norvegicus [6]) were 0.32% and “Non-toxic”, respectively. In addition, the EC50 with Aorta turned out to be 58.6 µg/mL (≈ 111 µM). Also, the inhibition in vivo at 51.06 mg/kg was determined as 61.8% with Rattus norvegicus [7], 56.5% with Rattus norvegicus [8] and 51.5% in the data set with Rattus norvegicus [9]. Moreover, the inhibition in vivo at 37.87 mg/kg with Mus musculus [10] was 56.1%.

Turning to `CC(C)Cc1ccc(C(C)c2n[nH]c(=S)n2-c2ccccc2CC(=O)NNC(=O)CO[N+](=O)[O-])cc1` (stereo not given), the Activity in data set [1] is 0.35%; in the data set on Rattus norvegicus [11], “Non-toxic”. Besides, the EC50 with Aorta worked out at 55.3 µg/mL (≈ 108 µM). Further, the inhibition in vivo at 37.28 mg/kg in the data set with Mus musculus [12] was 59%. For the same compound, the inhibition in vivo at 49.7 mg/kg with Rattus norvegicus [13] was determined as 54.5%; in the data set on Rattus norvegicus [14], 62.8%; in the data set with Rattus norvegicus [15], 58.8%.

Take `CC(C)Cc1ccc(C(C)c2n[nH]c(=S)n2-c2ccc(C(=O)NNC(=O)CO[N+](=O)[O-])c(C(=O)NNC(=O)CO[N+](=O)[O-])c2)cc1` (stereo not given): the Activity in data set [1] came out at 0.42%. Besides, the EC50 with Aorta came out at 38.7 µg/mL (≈ 58.6 µM). Besides, the inhibition in vivo at 47.98 mg/kg in the data set with Mus musculus [16] was determined as 52.6%. The inhibition in vivo at 63.98 mg/kg came to 41.9% in the data set with Rattus norvegicus [17], 40.1% in the data set on Rattus norvegicus [18] and 38.8% in the data set on Rattus norvegicus [19].

As to `CC(C)Cc1ccc(C(C)c2n[nH]c(=S)n2-c2ccc(C(=O)NNC(=O)CCO[N+](=O)[O-])cc2)cc1` (stereo not given), the values for the Activity (in data set [1]; in the data set on Rattus norvegicus [11]) were 0.39% and “Non-toxic”, respectively. Besides, the half-maximal effective concentration (EC50) in the data set on Aorta is 30.5 µg/mL (≈ 59.5 µM). In addition, in the data set with Mus musculus [12], the inhibition in vivo at 37.28 mg/kg was found to be 64.8%. Also, the inhibition in vivo at 49.7 mg/kg was 52.1% in the data set with Rattus norvegicus [13], 61.8% in the data set on Rattus norvegicus [14] and 57.1% in the data set on Rattus norvegicus [15].

`CC(C)Cc1ccc(C(C)c2n[nH]c(=S)n2-c2ccc(C(=O)NNC(=O)CO[N+](=O)[O-])cc2)cc1` (stereo not given): the Activity in [1] was 0.48%; in the data set on Rattus norvegicus [20], “Non-toxic”. Also, the 50% effective concentration (EC50) in the data set with Aorta stood at 42.8 µg/mL (≈ 85.8 µM). Also, the inhibition in vivo at 35.85 mg/kg with Mus musculus [21] was determined as 63.6%. The inhibition in vivo at 48.34 mg/kg with Rattus norvegicus [22] is 61.2%; in the data set on Rattus norvegicus [23], 56.5%; in the data set on Rattus norvegicus [24], 52.7%.

In the case of `O=C(O)Cc1ccccc1Nc1c(Cl)cccc1Cl` [DICLOFENAC], the Activity entry in the data set with Rattus norvegicus [25] was “Toxic”.

For `CC(C)Cc1ccc(C(C)C(=O)O)cc1` (stereo not given) [IBUPROFEN], the inhibition in vivo at 15 mg/kg in the data set on Mus musculus [26] stood at 62.4%. Further, the inhibition in vivo at 20 mg/kg in the data set on Rattus norvegicus [27] is 62.8%; with Rattus norvegicus [28], 58.2%; in the data set with Rattus norvegicus [29], 53.9%.

Values taken from ChEMBL document CHEMBL3045521, “Synthesis and evaluation of anti-inflammatory, analgesic, ulcerogenicity and nitric oxide-releasing studies of novel ibuprofen analogs as nonulcerogenic derivatives” (Med Chem Res, 2011).
